# pIC50: −log10 of the molar value.
# How the values were obtained:
# Dipeptidyl peptidase 8 = Dipeptidyl peptidase 8 (Homo sapiens, UniProt Q6V1X1)
# Dipeptidyl peptidase 9 = Dipeptidyl peptidase 9 (Homo sapiens, UniProt Q86TI2)
# [1] = Bioavailability in rat at 1 mg/kg, iv or 2 mg/kg, po; type: ADME, organism-based; conditions: in vivo
# Dipeptidyl peptidase 2 = Dipeptidyl peptidase 2 (Homo sapiens, UniProt Q9UHL4); experiment: Inhibition of QPP
# [2] = Half life in rat at 1 mg/kg, iv or 2 mg/kg, po; type: ADME, organism-based; conditions: in vivo
# [3] = Plasma clearance in rat at 1 mg/kg, iv or 2 mg/kg, po; type: ADME, organism-based
# [4] = Bioavailability in rhesus monkey at 1 mg/kg, iv or 2 mg/kg, po; type: ADME, organism-based, Macaca mulatta; conditions: in vivo
# [5] = Half life in dog at 1 mg/kg, iv or 2 mg/kg, po; type: ADME, organism-based, Canis lupus familiaris; conditions: in vivo
# Mus musculus [6] = experiment: Reduction of glucose excursion at 1 mg/kg, po in mouse by Oral Glucose Tolerance Test; type: functional; parameters: scale not given: the % may be the effect or the level left
# [7] = Half life in rhesus monkey at 1 mg/kg, iv or 2 mg/kg, po; type: ADME, organism-based, Macaca mulatta; conditions: in vivo
# [8] = Plasma clearance in rhesus monkey at 1 mg/kg, iv or 2 mg/kg, po; type: ADME, organism-based, Macaca mulatta
# [9] = Plasma clearance in dog at 1 mg/kg, iv or 2 mg/kg, po; type: ADME, organism-based, Canis lupus familiaris
# [10] = Bioavailability in dog at 1 mg/kg, iv or 2 mg/kg, po; type: ADME, organism-based, Canis lupus familiaris; conditions: in vivo
# Mus musculus [11] = experiment: Reduction of glucose excursion at 10 mg/kg, po in mouse by Oral Glucose Tolerance Test; type: functional; parameters: scale not given: the % may be the effect or the level left
# [12] = target: Voltage-gated inwardly rectifying potassium channel KCNH2 (Homo sapiens, UniProt Q12809); experiment: Binding to human ERG potassium channel
# Sequence of Voltage-gated inwardly rectifying potassium channel KCNH2 (Q12809 whole entry): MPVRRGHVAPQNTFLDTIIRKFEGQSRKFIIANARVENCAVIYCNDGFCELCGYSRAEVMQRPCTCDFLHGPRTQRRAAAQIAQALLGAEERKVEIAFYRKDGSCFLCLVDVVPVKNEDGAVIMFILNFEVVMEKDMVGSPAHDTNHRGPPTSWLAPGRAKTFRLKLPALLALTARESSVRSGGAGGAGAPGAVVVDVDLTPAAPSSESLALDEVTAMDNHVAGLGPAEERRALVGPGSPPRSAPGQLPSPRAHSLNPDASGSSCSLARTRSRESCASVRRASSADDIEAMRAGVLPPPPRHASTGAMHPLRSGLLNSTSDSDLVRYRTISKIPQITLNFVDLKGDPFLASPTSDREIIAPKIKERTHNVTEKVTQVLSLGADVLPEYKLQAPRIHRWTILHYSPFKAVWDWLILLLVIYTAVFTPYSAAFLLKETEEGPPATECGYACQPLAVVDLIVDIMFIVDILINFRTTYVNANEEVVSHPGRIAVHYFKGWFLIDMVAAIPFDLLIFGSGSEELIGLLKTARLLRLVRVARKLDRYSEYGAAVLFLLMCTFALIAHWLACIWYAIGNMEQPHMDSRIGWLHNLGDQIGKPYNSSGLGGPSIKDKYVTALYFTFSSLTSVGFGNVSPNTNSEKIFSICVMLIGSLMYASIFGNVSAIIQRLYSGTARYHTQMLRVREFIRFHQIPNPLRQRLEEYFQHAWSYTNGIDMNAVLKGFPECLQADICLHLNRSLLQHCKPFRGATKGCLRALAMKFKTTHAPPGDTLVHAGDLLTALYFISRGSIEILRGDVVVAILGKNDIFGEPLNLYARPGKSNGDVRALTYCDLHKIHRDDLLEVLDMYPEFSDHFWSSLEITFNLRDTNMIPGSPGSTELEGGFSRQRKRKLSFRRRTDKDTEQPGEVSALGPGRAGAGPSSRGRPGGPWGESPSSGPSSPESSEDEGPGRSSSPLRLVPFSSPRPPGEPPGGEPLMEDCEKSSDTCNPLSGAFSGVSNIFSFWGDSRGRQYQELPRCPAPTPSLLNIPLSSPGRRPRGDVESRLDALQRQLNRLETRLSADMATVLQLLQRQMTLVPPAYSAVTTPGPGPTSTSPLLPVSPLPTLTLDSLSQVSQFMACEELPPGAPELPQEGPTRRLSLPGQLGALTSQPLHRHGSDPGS
# Sequence of Dipeptidyl peptidase 9 (Q86TI2 whole entry): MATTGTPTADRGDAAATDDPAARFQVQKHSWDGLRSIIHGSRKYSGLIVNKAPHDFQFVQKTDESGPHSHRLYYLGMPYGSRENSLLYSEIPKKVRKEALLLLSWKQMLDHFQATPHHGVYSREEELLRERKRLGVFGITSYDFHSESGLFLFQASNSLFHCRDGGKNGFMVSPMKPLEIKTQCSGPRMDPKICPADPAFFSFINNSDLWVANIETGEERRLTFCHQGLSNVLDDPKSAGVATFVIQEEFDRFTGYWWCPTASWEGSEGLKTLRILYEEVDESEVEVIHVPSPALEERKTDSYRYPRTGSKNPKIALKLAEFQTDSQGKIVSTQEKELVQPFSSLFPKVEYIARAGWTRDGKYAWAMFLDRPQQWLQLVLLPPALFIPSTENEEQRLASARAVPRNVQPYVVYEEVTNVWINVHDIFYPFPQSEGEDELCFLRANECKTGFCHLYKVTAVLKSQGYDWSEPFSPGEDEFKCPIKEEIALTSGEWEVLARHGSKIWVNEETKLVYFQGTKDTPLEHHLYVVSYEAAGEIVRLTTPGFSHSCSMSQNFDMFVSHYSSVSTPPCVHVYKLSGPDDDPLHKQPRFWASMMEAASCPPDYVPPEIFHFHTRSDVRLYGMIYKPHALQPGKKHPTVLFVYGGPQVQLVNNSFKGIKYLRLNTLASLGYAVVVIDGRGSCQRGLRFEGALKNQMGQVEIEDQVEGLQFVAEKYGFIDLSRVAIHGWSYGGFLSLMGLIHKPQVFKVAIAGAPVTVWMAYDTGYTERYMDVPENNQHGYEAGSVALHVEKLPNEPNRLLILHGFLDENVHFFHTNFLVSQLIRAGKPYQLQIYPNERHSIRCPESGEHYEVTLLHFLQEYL
# Sequence of Dipeptidyl peptidase 8 (Q6V1X1 whole entry): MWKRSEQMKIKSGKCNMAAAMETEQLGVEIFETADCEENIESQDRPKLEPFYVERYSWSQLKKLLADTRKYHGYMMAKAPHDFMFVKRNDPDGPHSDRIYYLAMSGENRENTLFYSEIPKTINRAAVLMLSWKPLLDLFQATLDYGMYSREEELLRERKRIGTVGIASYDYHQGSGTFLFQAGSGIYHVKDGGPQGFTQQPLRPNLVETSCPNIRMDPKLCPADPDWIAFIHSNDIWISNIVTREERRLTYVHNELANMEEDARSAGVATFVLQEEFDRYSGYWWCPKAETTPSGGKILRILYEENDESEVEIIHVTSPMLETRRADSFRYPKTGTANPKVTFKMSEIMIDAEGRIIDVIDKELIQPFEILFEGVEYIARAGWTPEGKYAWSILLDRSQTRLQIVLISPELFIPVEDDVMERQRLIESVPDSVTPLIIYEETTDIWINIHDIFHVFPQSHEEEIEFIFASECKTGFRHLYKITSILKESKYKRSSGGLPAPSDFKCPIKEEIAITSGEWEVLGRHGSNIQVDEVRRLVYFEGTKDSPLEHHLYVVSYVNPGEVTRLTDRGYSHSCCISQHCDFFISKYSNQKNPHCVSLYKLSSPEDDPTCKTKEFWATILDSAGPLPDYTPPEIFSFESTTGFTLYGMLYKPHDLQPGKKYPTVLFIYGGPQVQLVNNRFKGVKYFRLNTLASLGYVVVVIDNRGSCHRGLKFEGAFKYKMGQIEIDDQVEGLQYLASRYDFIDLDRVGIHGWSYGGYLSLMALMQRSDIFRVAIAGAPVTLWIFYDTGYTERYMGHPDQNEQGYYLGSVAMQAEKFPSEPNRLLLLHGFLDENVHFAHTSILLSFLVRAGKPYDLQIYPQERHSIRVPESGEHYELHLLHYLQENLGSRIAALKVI
pIC50 (Dipeptidyl peptidase 8),pIC50 (Dipeptidyl peptidase 9),Structure (SMILES),also measured
< 4.00,< 4.00,C[C@@H](c1ccc(-c2ccc(=O)n(C)c2)cc1)[C@H](N)C(=O)N1CCC(F)CC1,
< 4.00,< 4.00,C[C@@H](c1ccc(-c2ccc(=O)n(C)c2)cc1)[C@H](N)C(=O)N1CCCC1,
,< 4.00,C[C@@H](c1ccc(-c2cc(F)c(=O)n(C)c2)cc1)[C@H](N)C(=O)N1CC[C@H](F)C1,
< 4.00,< 4.00,C[C@@H](c1ccc(-c2ccc(=O)n(C)c2)cc1)[C@H](N)C(=O)N1CC[C@H](F)C1.O=C(O)C(F)(F)F,bioavailability [4]: 50%; half-life [5]: 3.8 h; Activity (Mus musculus [6]): 33%; bioavailability [1]: 34%; half-life [7]: 3.9 h; clearance [8]: 6.7 mL/min/kg; clearance [9]: 4.7 mL/min/kg; bioavailability [10]: 95%; half-life [2]: 1.4 h; clearance [3]: 7.7 mL/min/kg; Activity (Mus musculus [11]): 56%
< 4.00,< 4.00,C[C@@H](c1ccc(-c2ccc(=O)n(C)c2)cc1)[C@H](N)C(=O)N1CCC(F)(F)C1,
< 4.00,< 4.00,CCn1cc(-c2ccc([C@H](C)[C@H](N)C(=O)N3CC[C@H](F)C3)cc2)ccc1=O,
< 4.00,< 4.00,C[C@@H](c1ccc(-c2ccc(=O)n(C)c2)cc1)[C@H](N)C(=O)N1CCSC1,
< 4.00,< 4.00,C[C@@H](c1ccc(-c2ccc(=O)n(C)c2)cc1)[C@H](N)C(=O)N1CC(F)C1,
< 4.00,< 4.00,C[C@@H](c1ccc(-c2ccc(=O)n(CC3CC3)c2)cc1)[C@H](N)C(=O)N1CC[C@H](F)C1,
< 4.00,< 4.00,Cc1cc(=O)n(C)cc1-c1ccc([C@H](C)[C@H](N)C(=O)N2CC[C@H](F)C2)cc1,

# The next lines start with the compound.
Structure (SMILES),pIC50 (Dipeptidyl peptidase 8),pIC50 (Dipeptidyl peptidase 9),also measured
C[C@@H](c1ccc(-c2cn(C)c(=O)cc2CO)cc1)[C@H](N)C(=O)N1CC[C@H](F)C1.O=C(O)C(F)(F)F,< 4.00,< 4.00,bioavailability [1]: 3%; pIC50 (Dipeptidyl peptidase 2): < 4.00; half-life [2]: 2.6 h; clearance [3]: 68.1 mL/min/kg
C[C@@H](c1ccc(-c2cn(C)c(=O)c(Cl)c2F)cc1)[C@H](N)C(=O)N1CC[C@H](F)C1,< 4.00,< 4.00,
Cc1c(-c2ccc([C@H](C)[C@H](N)C(=O)N3CC[C@H](F)C3)cc2)cc(Br)c(=O)n1C,< 4.00,< 4.00,
C[C@@H](c1ccc(-c2ccc(=O)n(C)c2F)cc1)[C@H](N)C(=O)N1CC[C@H](F)C1.O=C(O)C(F)(F)F,< 4.00,< 4.00,bioavailability [1]: 61%; half-life [2]: 1.1 h; clearance [3]: 11.2 mL/min/kg
C[C@@H](c1ccc(-c2ccc(=O)n(-c3ccc(F)cc3)c2)cc1)[C@H](N)C(=O)N1CC[C@H](F)C1,< 4.00,< 4.00,
Cc1c(-c2ccc([C@H](C)[C@H](N)C(=O)N3CC[C@H](F)C3)cc2)ccc(=O)n1C,< 4.00,< 4.00,
COc1cc(=O)n(C)cc1-c1ccc([C@H](C)[C@H](N)C(=O)N2CC[C@H](F)C2)cc1,< 4.00,< 4.00,
C[C@@H](c1ccc(-c2ccc(O)nc2)cc1)[C@H](N)C(=O)N1CC[C@H](F)C1.O=C(O)C(F)(F)F,< 4.00,< 4.00,bioavailability [1]: 10%; pIC50 [12]: 5.08; half-life [2]: 1.9 h; clearance [3]: 35.8 mL/min/kg
CCOC(=O)Cn1cc(-c2ccc([C@H](C)[C@H](N)C(=O)N3CC[C@H](F)C3)cc2)ccc1=O,< 4.00,< 4.00,
C[C@@H](c1ccc(-c2cc(Br)c(=O)n(C)c2)cc1)[C@H](N)C(=O)N1CC[C@H](F)C1,< 4.00,< 4.00,
C[C@@H](c1ccc(-c2cn(C)c(=O)cc2F)cc1)[C@H](N)C(=O)N1CC[C@H](F)C1,< 4.00,< 4.00,
CCOC(=O)C(F)(F)n1cc(-c2ccc([C@H](C)[C@H](N)C(=O)N3CC[C@H](F)C3)cc2)ccc1=O,< 4.00,< 4.00,
CCOC(=O)Nc1c(-c2ccc([C@H](C)[C@H](N)C(=O)N3CC[C@H](F)C3)cc2)cn(C)c(=O)c1F,< 4.00,,

# Source: ChEMBL document CHEMBL1138985, “Discovery of potent, selective, and orally bioavailable pyridone-based dipeptidyl peptidase-4 inhibitors” (Bioorg Med Chem Lett, 2006)
